Test results reported in ChEMBL document CHEMBL1158449, “Hirtellanines A and B, a pair of isomeric isoflavonoid derivatives from Campylotropis hirtella and their immunosuppressive activities” (Bioorg Med Chem Lett, 2009).

What was measured:
[1] = test system: Splenocyte; test: Selectivity index, CC50 for splenocytes to IC50 for concanavalin A-induced splenocyte proliferation; assay type: functional
[2] = test system: Splenocyte; test: Selectivity index, CC50 for splenocyte to IC50 for LPS-induced splenocytes proliferation; assay type: functional
[3] = Cytotoxicity against splenocytes after 48 hrs by MTT assay; assay type: cell-based, Splenocyte
[4] = test system: Splenocyte; test: Immunosuppressive activity in splenocytes assessed as inhibition of concanavalin A-induced proliferation after 48 hrs by [3H]thymidine incorporation assay; assay type: functional, cell-based; conditions: Mus musculus
[5] = test system: Splenocyte; test: Immunosuppressive activity in splenocytes assessed as inhibition of LPS-induced proliferation after 48 hrs by [3H]thymidine incorporation assay; assay type: functional, cell-based; conditions: Mus musculus

Structure (SMILES)	Ratio CC50/IC50 [1]	Ratio CC50/IC50 [2]	CC50 at 48 h [3]	IC50 [4]	IC50 [5]
C/C=C/C[C@@H](C)[C@@H](O)[C@H]1C(=O)N[C@@H](CC)C(=O)N(C)CC(=O)N(C)[C@@H](CC(C)C)C(=O)N[C@@H](C(C)C)C(=O)N(C)[C@@H](CC(C)C)C(=O)N[C@@H](C)C(=O)N[C@H](C)C(=O)N(C)[C@@H](CC(C)C)C(=O)N(C)[C@@H](CC(C)C)C(=O)N(C)[C@@H](C(C)C)C(=O)N1C [CYCLOSPORINE]	88	12.39	–	–	–
COc1c2c(cc3oc4oc5cc(O)c(O)cc5c4c(=O)c13)OC(C)(C)C=C2 [HIRTELLANINE A]	3.29	50.5	3.03 µM	0.92 µM	0.06 µM
COc1c2c(cc3oc(=O)c4c5cc(O)c(O)cc5oc4c13)OC(C)(C)C=C2 [HIRTELLANINE B]	2.76	8.77	26.3 µM	9.55 µM	3 µM
